Measured values reported in patent US20130116267A1 (priority 2010, published 2013).
“Also recorded” adds a separate entry of the source. Like-named read-outs stand apart in the source and are kept apart here.

Assays:
PI3K p110 delta = PI3K p110 delta (Homo sapiens, UniProt O00329); settings: cited from earlier work
neutrophils = settings: read-out: IC50 in fMLP-induced elastase exocytosis from neutrophils; cited from earlier work
[1] = test system: influenza virus strain PR8; format: cell-based
[2] = test system: H7N7 A/Equine/London/1416/73 influenza virus strain; format: in vivo; settings: wild type mice, 10×LD50 H7N7 London strain; vs vehicle only; FIG. 3B
HIV-1Ba-L = assay: HIV-1 p24 levels in supernatants of infected PHA/IL-2-activated PBMC; format: cell-based; settings: n=4 donors, PBMC cultured with 1 μM, 10 μM or 50 μM, FIG. 4
[3] = test system: PHA-activated CD4+ T cells; assay: CD25 expression on CD4+ T cells exposed to HIV-1 (flow cytometry); format: cell-based, human; settings: PHA-activated CD4+ T cells exposed to HIV-1; different concentrations, n=3; FIG. 6
CD3-induced IL-2 release = settings: Lewis rats; cited from earlier work

PI3K p110 delta, sequence (O00329 whole entry): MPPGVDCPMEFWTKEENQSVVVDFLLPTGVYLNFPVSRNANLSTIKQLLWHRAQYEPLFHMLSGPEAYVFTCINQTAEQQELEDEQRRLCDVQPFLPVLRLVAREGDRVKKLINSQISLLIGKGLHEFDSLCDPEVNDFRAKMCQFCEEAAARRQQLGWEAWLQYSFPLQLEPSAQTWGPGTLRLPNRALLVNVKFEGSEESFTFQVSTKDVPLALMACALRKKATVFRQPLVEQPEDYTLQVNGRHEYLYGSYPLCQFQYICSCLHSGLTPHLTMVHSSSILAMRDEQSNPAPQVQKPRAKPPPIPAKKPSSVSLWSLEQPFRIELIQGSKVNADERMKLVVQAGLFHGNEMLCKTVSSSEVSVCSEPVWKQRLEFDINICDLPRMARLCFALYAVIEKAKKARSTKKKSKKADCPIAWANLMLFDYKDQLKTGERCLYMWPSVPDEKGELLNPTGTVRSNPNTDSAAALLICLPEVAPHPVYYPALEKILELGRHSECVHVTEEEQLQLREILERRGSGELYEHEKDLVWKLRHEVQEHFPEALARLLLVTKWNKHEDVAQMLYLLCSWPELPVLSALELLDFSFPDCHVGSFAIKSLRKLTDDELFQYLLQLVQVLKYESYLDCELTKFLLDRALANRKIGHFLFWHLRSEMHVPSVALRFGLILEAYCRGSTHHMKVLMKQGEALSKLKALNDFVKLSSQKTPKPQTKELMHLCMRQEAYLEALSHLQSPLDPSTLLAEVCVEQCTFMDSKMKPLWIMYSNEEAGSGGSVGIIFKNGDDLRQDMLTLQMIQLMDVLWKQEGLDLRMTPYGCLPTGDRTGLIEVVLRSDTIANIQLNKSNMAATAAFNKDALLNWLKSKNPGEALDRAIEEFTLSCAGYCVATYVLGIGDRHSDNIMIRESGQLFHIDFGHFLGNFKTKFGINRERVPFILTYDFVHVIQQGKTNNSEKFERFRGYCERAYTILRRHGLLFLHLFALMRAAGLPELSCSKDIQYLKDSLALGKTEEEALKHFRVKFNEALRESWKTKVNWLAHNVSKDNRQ
PI3K p110 delta, sequence (P27986 whole entry partner): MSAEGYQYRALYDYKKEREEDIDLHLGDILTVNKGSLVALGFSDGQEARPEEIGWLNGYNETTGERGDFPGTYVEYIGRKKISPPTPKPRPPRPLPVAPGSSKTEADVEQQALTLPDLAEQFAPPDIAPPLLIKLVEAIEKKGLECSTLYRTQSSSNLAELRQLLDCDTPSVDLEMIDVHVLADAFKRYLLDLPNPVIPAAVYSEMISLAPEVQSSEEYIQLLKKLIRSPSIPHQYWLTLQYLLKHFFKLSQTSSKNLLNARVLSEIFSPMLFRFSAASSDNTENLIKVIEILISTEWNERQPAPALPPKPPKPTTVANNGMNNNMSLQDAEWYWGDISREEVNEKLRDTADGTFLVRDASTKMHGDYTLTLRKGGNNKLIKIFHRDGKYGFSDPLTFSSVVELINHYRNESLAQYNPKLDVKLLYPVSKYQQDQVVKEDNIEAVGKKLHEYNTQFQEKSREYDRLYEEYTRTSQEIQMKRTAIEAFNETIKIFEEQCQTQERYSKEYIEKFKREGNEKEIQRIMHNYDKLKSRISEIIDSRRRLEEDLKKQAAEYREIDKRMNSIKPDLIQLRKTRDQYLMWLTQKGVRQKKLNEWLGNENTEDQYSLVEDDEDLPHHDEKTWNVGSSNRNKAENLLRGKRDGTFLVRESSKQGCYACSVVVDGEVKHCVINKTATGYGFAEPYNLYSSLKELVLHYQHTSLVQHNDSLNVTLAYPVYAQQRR

Cc1oc2ncn(CC(C)C)c(=O)c2c1C(=O)NCc1cccnc1 [Compound (VI), 3-isobutyl-6-methyl-4-oxo-N-(pyridin-3-ylmethyl)-3,4-dihydrofuro[2,3-d]pyrimidine-5-carboxamide]
IC50 (PI3K p110 delta; read-out: PI3K p110 delta IC50): 1200 nM

Cc1noc2nc(C(C)Sc3ncnc4[nH]cnc34)n(-c3ccccc3)c(=O)c12 (stereo not drawn) [Compound (V), 6-(1-((9H-purin-6-yl)thio)ethyl)-3-methyl-5-phenylisoxazolo[5,4-d]pyrimidin-4(5H)-one]
IC50 (neutrophils): 1200 nM

Nc1nc(N)c2nc(-c3cccc4[nH]ccc34)cnc2n1 [Compound (XXIX), 6-(1H-indol-4-yl)pteridine-2,4-diamine]
IC50 (PI3K p110 delta; read-out: PI3K p110 delta IC50): 64 nM

Cc1ccccc1-n1c(Cn2cnc3c(N)ncnc32)nc2cccc(C)c2c1=O [IC87114, 2-[(6-amino-9H-purin-9-yl)methyl]-5-methyl-3-(o-tolyl)quinazolin-4(3H)-one]
influenza virus replication [1]: inhibits influenza virus replication
viral mRNA production reduced compared to untreated cells ([1]; A549 epithelial cell line infected with influenza virus, FIG. 1B: 100 μM, PR8, MOI=0.01): ~25 fold
survival after lethal challenge [2]: increased survival; also recorded: protects mice lethally challenged
reduction of 48 hour HIV-1 p24 levels (HIV-1Ba-L): approximately 80%
CD25 expression [3]: not affected
survival of A549 cell (A549 cell): did not affect the survival

COCC(O)Cn1cc(-c2ccc3c(c2)N(c2nc4c(s2)C(=O)NC(C)(C)C4)CCO3)cn1 (stereo not drawn) [Compound (XXI), 2-(6-(1-(2-hydroxy-3-methoxypropyl)-1H-pyrazol-4-yl)-2H-benzo[b][1,4]oxazin-4(3H)-yl)-6,6-dimethyl-6,7-dihydrothiazolo[5,4-c]pyridin-4(5H)-one]
ED50 in a CD3-induced IL-2 release study (CD3-induced IL-2 release): 5 mg/kg

COc1ncc(-c2ccc3nccc(-c4ccncc4)c3c2)cc1NS(=O)(=O)c1ccc(F)cc1F [Compound (XXXII), 2,4-difluoro-N-(2-methoxy-5-(4-(pyridin-4-yl)quinolin-6-yl)pyridin-3-yl)-benzenesulfonamide]
IC50 (PI3K p110 delta; read-out: apparent PI3K p110 delta IC50): 0.024 nM

CC(c1nc2ccsc2c(=O)n1-c1ccccc1)n1cnc2c(N)ncnc21 (stereo not drawn) [Compound (IV), 2-(1-(6-amino-9H-purin-9-yl)ethyl)-3-phenylthieno[3,2-d]pyrimidin-4(3H)-one]
IC50 (PI3K p110 delta; read-out: PI3K p110 delta IC50): 40 nM
